For orientation: EC50 means the concentration that produces a half-maximal response. What is called IC50 is the concentration at which inhibition is half-maximal. Higher therefore signals lower potency.

The results in this text go back to PubChem BioAssay AID179 (DTP/NCI, 2004).

The test system of the experiment is CEM cells HIV-1 protection, formazan growth assay. Briefly: NCI AIDS Antiviral Assay. The note with it: for IC50: measured here: growth of uninfected CEM cells. Summed up:
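Protection of CEM cells against HIV-1 was scored from cell growth (soluble formazan) across five concentrations, with parallel uninfected cells. Lack of protection may reflect toxicity.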

“And” between values parts separate entries of the source, which are not always exact repeats. Identical values can stand only once. The source made the active and inactive calls.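 How the source made its calls: active means compounds giving half or more protection of infected cells from virus-caused growth loss, again on retest; inactive means the rest.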 A value given as a limit tells only on which side of the number the result lay.

In the case of `Cc1cc(C)[s+]s1`, the EC50 was above 200 µM; the IC50 is 112 µM and 182 µM.

As to `O=C1c2cccc3cccc(c23)C(=O)N1CCCN(CCO)CCO`, the EC50 was above 200 µM and the IC50 came out at 12.3 µM. The matching figures for `CCOC(=O)c1cc(-c2ccc(-c3cc(C(=O)OCC)c(C#N)c(N)c3C#N)cc2)c(C#N)c(N)c1C#N`: above 26.9 µM and above 26.9 µM. On the same counts, the results for `NC1c2c(Br)sc(N3CCCC3)c2C(=O)C1O` (stereo unspecified) are above 200 µM and above 200 µM. Take `CCC1SC(C)C(=O)NC1=O` (stereo unspecified): the EC50 is above 661 µM and the IC50 was above 661 µM.

In the case of `CC(=O)N(C[C@H]1CN(Cc2ccccc2)CC[C@H]1O)C12CC3CC(CC(C3)C1)C2`, the EC50 was above 91.2 µM and the IC50 turned out to be 69.2 µM. On the same counts, the results for `Cc1ccc(NC(=O)c2c(NC(=O)CN3CCOCC3)c(C#N)c3n2CCC3)cc1` are above 200 µM and above 200 µM. The matching figures for `O=C(O[C@@H]1C(=O)N2CC[C@H]3OC(O)[C@@H]1[C@H]32)c1ccc([N+](=O)[O-])cc1` (stereo partly specified): above 200 µM and above 200 µM. `O=S1(=O)OC(c2cc(Br)c(O)c(Br)c2)(c2cc(Br)c(O)c(Br)c2)c2ccccc21`: the outcome was inactive. Consider `CC(O)CCC(=O)c1ccoc1` (stereo unspecified), for which the EC50 was above 1480 µM and the IC50 is above 1480 µM. In the case of `CN(C)CCC(=O)N1C/C(=C\c2ccc(Cl)c(Cl)c2)C(=O)/C(=C/c2ccc(Cl)c(Cl)c2)C1`, the EC50 is above 33.9 µM and the IC50 was found to be 0.0437 µM. Consider `CCOC(=O)C1C[C@H]2CO[C@H](c3ccccc3)N2C1=O` (stereo partly specified), for which the EC50 was above 200 µM and the IC50 is above 200 µM. For `CC(=O)n1c2c(c(=O)n1-c1ccccc1)S(=O)CCC2` (stereo unspecified), the EC50 is above 123 µM and the IC50 came out at 89.1 µM. For the compound `N#CCC[P+](c1ccccc1)(c1ccccc1)c1ccccc1`, the EC50 is above 200 µM and the IC50 came to 55 µM. On the same counts, the results for `c1ccc(OCC2CO2)c(OCC2CO2)c1` (stereo unspecified) are above 1120 µM and 3.98 µM. Regarding `COC(=O)C1=CON2C3CC4CC(C3)CC(C4)C12C` (stereo unspecified), the EC50 is above 200 µM and the IC50 amounted to 135 µM.

Regarding `C=C[C@@]1(C)CC2CC[C@]3(C)C(C)=CC(=O)CC3[C@]2(C)CC1O` (stereo partly specified), the EC50 is above 200 µM and the half-inhibitory concentration (IC50) came to 107 µM. The matching figures for `COCOc1cc(C)c(C(=O)Oc2cc(C)c(C(=O)OC)c(OCOC)c2C)c(OCOC)c1C=O`: above 200 µM and 26.9 µM. On the same counts, the results for `CC[C@](O)(C(=O)O)c1cc2n(c(=O)c1CO)Cc1cc3ccccc3nc1-2` are above 0.1 µM and 0.012 µM. With `CSc1nc(C)c2c(n1)SCC2`, the EC50 was above 200 µM and the IC50 is above 200 µM.

Take `CCCCNCCCNCCCNC(=O)c1csc(-c2csc(CCNC(=O)C(NC(=O)C(C)C(O)C(C)NC(=O)C(NC(=O)c3nc(C(CC(N)=O)NCC(N)C(N)=O)nc(N)c3C)C(OC3OC(CO)C(O)C(O)C3OC3OC(CO)C(O)C(OC(N)=O)C3O)c3cnc[nH]3)C(C)O)n2)n1` (stereo unspecified): the result was inactive.

Take `O=C(Nc1ccc(C2=NCCN2)cc1)c1ccc(C(=O)Nc2ccc(C3=NCCN3)cc2)c(Cl)c1`: the EC50 is above 200 µM and the IC50 was 49 µM.

For `O=C1NC(N2CCCC(CO)C2)=N/C1=C\c1cccs1` (stereo unspecified), the EC50 is above 200 µM and the IC50 was above 200 µM. For `CS(=O)(=O)OCCCCOS(C)(=O)=O`, the EC50 is above 204 µM and the IC50 is above 204 µM. As to `S=P1(Oc2ccccc2)OCCO1`, the EC50 was above 617 µM and the concentration for half-maximal inhibition (IC50) is above 617 µM. For `Nc1nc(N)c(N=Nc2ccc(S(=O)(=O)NC(=O)c3ccccc3)cc2)c(=O)[nH]1`, the EC50 was above 200 µM and the IC50 was above 200 µM. In the case of `Cc1ccc(NC(=O)CCc2nc(=S)[nH][nH]2)cc1`, the EC50 is 251 µM and the IC50 was 331 µM. On the same counts, the results for `COC(=O)C(=O)C(CC(=O)Nc1c(C)cccc1C)C(=O)OC` (stereo unspecified) are above 776 µM and above 776 µM.

For `OCC1OC2(CCCC3CC32)O[C@H]1CO` (stereo partly specified), the outcome was inactive. Consider `COc1ccc2nc3cc([N+](=O)[O-])ccc3c(NCCCN(C)C)c2c1`, for which the EC50 is above 2 µM and the IC50 came out at 0.38 µM. On the same counts, the results for `CCC1(C)C(C#N)(C#N)C1(C#N)C#N` are above 200 µM and 1.29 µM. Consider `Nc1c(O)c(C(=O)O)cc2ccccc12`, for which the EC50 is above 200 µM and the IC50 turned out to be 17.8 µM. With `COc1ccccc1Cc1nc(-c2ccccc2)nn(C2OC(COC(C)=O)C(OC(C)=O)C(OC(C)=O)C2OC(C)=O)c1=S` (stereo unspecified), the outcome was inactive.

In the case of `O=C(c1ccccc1)c1ccsc1C(=O)c1ccccc1`, the EC50 was above 200 µM and the IC50 was found to be 36.3 µM.

With `CCOC(=O)Nc1nc2ccn(C)c2s1`, the EC50 is above 200 µM and the IC50 is above 200 µM.

For `Cn1c(=N)n[n+]([O-])c2ccccc21`, the EC50 was above 200 µM; the IC50 was 3.47 µM and 4.07 µM. In the case of `CC(=O)Nc1c(C)cc2c(nc3n2CCC3O)c1[N+](=O)[O-]` (stereo unspecified), the EC50 is above 200 µM and the IC50 was above 200 µM.

Turning to `CCc1nnc2sc3c(Cl)c4nn5c(CC)nnc5sc4c(Cl)c3nn12`, the EC50 was above 200 µM and the IC50 came out at 11.7 µM. The matching figures for `Nc1nc(NC(=O)C2=NS(=O)(=O)c3cc(S(N)(=O)=O)c(Cl)cc3N2)n[nH]1`: 331 µM and 380 µM. The matching figures for `CC12CC(=O)Nc3ccccc3N1C(c1ccccc1)=NO2` (stereo unspecified): above 200 µM and above 200 µM. For the compound `C=C1CCOC2(C(O)C(C)(O)CO)NC(=O)C1(O)NC2=O` (stereo unspecified), the outcome was inactive. Consider `c1ccc2c(c1)CCN(C1=NCCO1)C2`, for which the EC50 is above 200 µM and the half-inhibitory concentration (IC50) was determined as 178 µM. On to `Cc1ccc(CN=C(N)CSS(=O)(=O)O)cc1C`, for which the EC50 is above 200 µM and the IC50 is above 100 µM.

Consider `Cn1c(=O)c(C2c3ccccc3Oc3c2c(=O)n(C)c2ccccc32)c(O)c2ccccc21` (stereo unspecified), for which the EC50 is above 16.6 µM and the IC50 was above 16.6 µM. Turning to `Cc1cn(C2CC(N=[N+]=[N-])C(CO[Si](C)(C)C(C)(C)C)O2)c(=O)[nH]c1=O` (stereo unspecified), the EC50 is 7.08 µM and the IC50 is 66.1 µM.

`O=NCC(=O)OCc1ccccc1`: the EC50 was above 200 µM and the IC50 was above 200 µM. Take `CCCCOC(=O)/C=C(\Br)C(=O)OCCCC`: the result was inactive. `CCOC(=O)/C(=C/c1ccc(OCc2ccccc2)cc1)P(=O)(OCC)OCC`: the EC50 was above 44.7 µM and the IC50 came to 4.27 µM. On the same counts, the results for `COC(=O)c1nc(N)nc(C(=O)OC)c1C(=O)/C=C/c1ccccc1` are above 741 µM and 324 µM. Consider `N/C=N/S(=O)(=O)c1ccc(NC(=O)COC(=O)c2cccc3c(=O)c4ccccc4[nH]c23)cc1`, for which the outcome was inactive. For `O=[N+]([O-])c1ccc(Nc2nnc(-c3ccc(Cl)cc3Cl)s2)cc1`, the result was inactive. In the case of `O=[N+]([O-])c1ccc(N=Nc2ccc(O)c3c(O)cc(S(=O)(=O)O)cc23)cc1S(=O)(=O)O`, the EC50 is above 100 µM and the 50% inhibitory concentration (IC50) is above 100 µM. On to `c1ccc(CSCCC(SCc2ccccc2)SCc2ccccc2)cc1`, for which the EC50 is above 200 µM and the half-inhibitory concentration (IC50) is above 200 µM. Turning to `O=c1c2ccccc2nc(-c2ccccc2)n1/N=C/c1ccccc1[N+](=O)[O-]`, the EC50 is above 50.1 µM and the IC50 was above 50.1 µM.

For the compound `CCCc1c(-c2ccc(OC)cc2)c(=O)oc2cc(O)ccc12`, the EC50 is above 200 µM and the half-inhibitory concentration (IC50) amounted to 53.7 µM. On to `O=C(Nc1cccc2c(OC(=O)C(Cl)Cl)c(N=Nc3ccc(S(=O)(=O)Nc4nccs4)cc3)cc(N=Nc3ccc(S(=O)(=O)Nc4nccs4)cc3)c12)C(Cl)Cl` (tested in a mixture with another compound), for which the EC50 is 46.8 µM and > 50.1 µM; the result was inactive.

Turning to `O=C(Nc1sccc1S(=O)(=O)c1ccc(Cl)cc1)C(F)(F)F`, the EC50 was above 200 µM and the IC50 was 9.55 µM. For the compound `C(=NCCN=Cc1cccc2ccccc12)c1cccc2ccccc12`, the result was inactive.

Consider `CC1CC(=O)C(C(O)CC2CC(=O)N(c3ccccc3)C(=O)C2)C(C)C1` (stereo unspecified), for which the EC50 was above 200 µM and the IC50 is above 200 µM.

With `CC(=O)N(C(C)=O)n1c(Cc2ccc(Cl)cc2)n[nH]c1=O`, the EC50 was above 200 µM and the IC50 was above 200 µM.

On to `C=CCC(=S)NCCc1c[nH]c2ccccc12`, for which the EC50 is above 200 µM and the concentration for half-maximal inhibition (IC50) worked out at 120 µM.

On to `O=S(=O)(O)OC1CCCCC1Nc1ccccc1` (stereo unspecified), for which the result was inactive.

Consider `Cn1c(O)c(N=O)c(=O)[nH]c1=O`, for which the EC50 is above 200 µM and the IC50 is above 200 µM.

With `O=c1[nH]nc(Cc2ccccc2)n1CCO`, the outcome was inactive.

Take `COC(=O)/N=[N+](\[O-])C(c1ccc(OC)cc1)C1CCCCC1` (stereo unspecified): the EC50 was above 200 µM and the IC50 came to 5.62 µM. The matching figures for `O=C1OCCN(CCO)C12CCCC2`: above 759 µM and above 759 µM. On the same counts, the results for `CCn1c2ccccc2n2c(=O)c3c(c(C#N)c12)CCCC3` are above 200 µM and above 200 µM. The matching figures for `CO/N=C1/c2sccc2[C@H](NC(=O)CNC(=O)OC(C)(C)C)[C@@H]1O`: above 200 µM and above 200 µM. Take `CCN(CC)Cc1c(OC)ccc2[nH]c3c4ccc(Cl)cc4ncc3c12`: the EC50 was above 200 µM and the IC50 came out at 1.1 µM.

As to `COC12OCCN(CCO)C1=CC(=O)C1(C)N=NC(C)C12` (stereo unspecified), the result was inactive. For `O=C(OCC1CCCN2CCCCC12)c1ccncc1` (stereo unspecified), the EC50 is 19.1 µM and the IC50 was above 200 µM. `OCc1cn(C(c2ccccc2)(c2ccccc2)c2ccccc2)cn1`: the EC50 is 195 µM and the IC50 is above 200 µM. On the same counts, the results for `COC(=O)C(Cc1c(C2Nc3ccccc3C2CC(NC(C)=O)C(=O)OC)[nH]c2ccccc12)NC(C)=O` (stereo unspecified) are above 200 µM and above 200 µM.

As for `O=NC1C(Cl)C2CC1C1C(Br)C(Br)CC21` (stereo unspecified), the EC50 was above 200 µM and the IC50 was above 200 µM.
